# Assays:
# [1] = tested on: Thp1 human monocytic cells; experiment: Thp1 Monocyte ATP Production Assay (ATPlite); type: cell-based; details: for IC50: Thp1 cells, 24 hour incubation, 9-point concentration range from 10 μM to 10 nM, mean of 2 independent experiments; for potency in the Thp1 monocytic ATP assay (in words): as compared to the reference compounds
# Summary of the method: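 Thp1 cells in glucose-free RPMI-1640 with 1% FBS were treated with compounds for 24 h at 37 °C/5% CO2, then ATP measured by ATPlite luminescence. Signal expressed as % of control viability; IC50 from 4-parameter fit, mean of two experiments.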
# [2] = Rodent Pharmacokinetics Studies; type: in vivo, rat; details: male Han Wistar rats; for i.v. AUC: 0.25 mg/kg intravenous; for Bioavail, F: oral vs intravenous; for half-life: rat, plasma
# Description: Absorption and metabolic stability were studied using an in vivo pharmacokinetics assay.
# […] Test compounds were formulated in 0.5% carboxymethylcellulose (CMC)/0.1% Tween-80 for administration via the oral route, or in 5% DMSO/10% solutol in saline for administration via the intravenous route. For compound HMC-C-01-A the oral administration was formulated in 2% dimethylacetamide/20% hydroxypropyl-β-cyclodextrin in water. Animals were given free access to food throughout the study except for fasting overnight and until 2 hours post dose on the day of dosing.
# Blood samples were taken from the retro-orbital plexus at the following time points and placed in microtubes containing 20% K2EDTA solution:
# Oral Dosing: predose; 0.25, 0.5, 1, 2, 4, 6, 8, 12 and 24 hours post dose.
# Blood samples were centrifuged to obtain plasma, which was transferred to a separate container and frozen at −20° C.
# For analysis, samples were thawed at room temperature and prepared by protein precipitation with acetonitrile spiked with internal standard (500 ng/mL glipizide) in the ratio 1:4 with plasma.
# The pharmacokinetic parameters for the test compounds were calculated by Phoenix WinNonlin version 8.0 (Certara, CA) using standard non-compartmental methods. Peak plasma concentrations (Cmax) and time of the peak plasma concentration (Tmax) were the observed values. The area under the plasma concentration-time curve (AUC) was determined by use of the linear trapezoidal rule up to the last measurable concentration (AUClast) and thereafter by extrapolation of the terminal elimination phase to infinity (AUCinf). The elimination phase half-life (t1/2) was calculated as 0.693/kel.
# [3] = tested on: human hepatocytes; experiment: Human Hepatocyte Stability; type: in vitro ADME; details: for metabolic stability (in words): human hepatocytes
# Procedure: (§1) Metabolic stability of test compounds was measured by determination of the rate of disappearance of the compound when incubated in the presence of human hepatocytes, a primary source of the most important enzymes (cytochrome P450s) involved in drug metabolism. Study of drug stability in the presence of primary hepatocytes is accepted as a valuable model permitting rapid prediction of in vivo drug stability.
# (§2) Human hepatocytes were obtained from a commercial source and viability was assessed using a trypan blue solution prior to use. Test compounds (final concentration 1 μM, 0.1 DMSO, 0.9% acetonitrile) or a marker (diclofenac or diltiazem, final assay concentration 1 μM, 0.1% DMSO, 0.9% acetonitrile) were incubated with pooled hepatocytes for a 60 minute period and samples removed at up to 6 time points and analysed by LC-MS/MS for the presence/amount of test compounds.
# (§3) Each compound was incubated for 0, 5, 15, 30, 45, or 60 minutes. The reactions were stopped by the addition of methanol containing an internal standard (1 μM Tolbutamide) at the appropriate time points, mixed and placed at −20° C. for 1 hour to quench and allow protein to precipitate. All samples were centrifuged (2500× g, 20 minutes, 4° C.). The aliquots were analysed using LC-MS/MS. Reactions were performed in duplicate at 37° C.
# (§4) Data were processed, and the results plotted as In(concentration) vs. time. The elimination rate constant (slope of the regression line, k) was calculated using the following formula, where C(t) is the concentration at time t and C(0) is the starting concentration:
# (§5) The half-life (t1/2) was calculated using the following formula: […]
# (§6) The intrinsic clearance (Clint) was calculated using the following formula, where [cell] is the hepatocyte concentration in the assay: […]
# [4] = Human Hepatocyte Stability; type: in vitro ADME; details: pooled human hepatocytes, 1 μM, 60 minute incubation; for half-life at 1 μM: read-out: Human t1/2
# Procedure: as §1, §2, §3, §4, §5, §6
# [5] = target: hERG ion channel (Homo sapiens (Human), UniProt Q12809); experiment: hERG Ion Channel binding assay (3H astemizole displacement)
# hERG ion channel, sequence (Q12809 whole entry): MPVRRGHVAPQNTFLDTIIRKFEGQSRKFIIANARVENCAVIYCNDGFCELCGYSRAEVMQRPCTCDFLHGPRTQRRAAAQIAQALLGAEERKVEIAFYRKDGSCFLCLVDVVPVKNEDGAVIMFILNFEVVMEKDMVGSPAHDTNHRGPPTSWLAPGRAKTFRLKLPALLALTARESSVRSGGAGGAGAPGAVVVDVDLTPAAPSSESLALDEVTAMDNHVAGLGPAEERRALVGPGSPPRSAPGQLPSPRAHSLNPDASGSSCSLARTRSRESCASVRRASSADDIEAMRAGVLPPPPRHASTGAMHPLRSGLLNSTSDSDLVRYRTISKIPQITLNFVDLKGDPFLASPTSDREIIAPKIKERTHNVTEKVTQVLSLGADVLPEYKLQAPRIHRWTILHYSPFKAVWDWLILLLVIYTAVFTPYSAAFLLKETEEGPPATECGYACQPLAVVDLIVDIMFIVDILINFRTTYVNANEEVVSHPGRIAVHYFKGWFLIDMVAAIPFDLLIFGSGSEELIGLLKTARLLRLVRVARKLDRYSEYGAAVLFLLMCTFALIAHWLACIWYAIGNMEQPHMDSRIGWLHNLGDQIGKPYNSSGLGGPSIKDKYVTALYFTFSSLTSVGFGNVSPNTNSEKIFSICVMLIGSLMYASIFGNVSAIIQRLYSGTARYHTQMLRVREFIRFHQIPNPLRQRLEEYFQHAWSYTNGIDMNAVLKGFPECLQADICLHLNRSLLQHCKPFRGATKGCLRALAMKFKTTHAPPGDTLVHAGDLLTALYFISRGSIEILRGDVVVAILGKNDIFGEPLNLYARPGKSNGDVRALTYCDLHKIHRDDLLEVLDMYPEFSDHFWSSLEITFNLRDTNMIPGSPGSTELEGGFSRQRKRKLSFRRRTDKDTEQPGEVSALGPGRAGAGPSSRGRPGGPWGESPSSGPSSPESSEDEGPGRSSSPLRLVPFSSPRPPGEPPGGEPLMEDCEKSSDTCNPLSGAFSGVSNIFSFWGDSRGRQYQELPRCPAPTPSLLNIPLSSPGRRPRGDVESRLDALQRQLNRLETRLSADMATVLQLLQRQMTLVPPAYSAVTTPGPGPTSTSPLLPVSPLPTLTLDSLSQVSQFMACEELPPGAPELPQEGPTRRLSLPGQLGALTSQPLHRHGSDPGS
# Summary of the method: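 Membranes from stably transfected hERG-HEK293 cells incubated with 1.5 nM ³H-astemizole ± test compound in HEPES buffer pH 7.4 (0.1% BSA, 5 mM KCl, 130 mM NaCl) at 25° C for 60 min. Bound ligand measured by filtration and scintillation counting; reported as % displacement (0% none, 100% complete).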
# [6] = pooled human hepatocytes, 1 μM, 60 minute incubation
SMILES,i.v. AUC [2] [ng/mL/min],"Bioavail, F [2] [%]","IC50 ([1]; Homo sapiens, THP-1) [nM]",p.o. AUC ([2]; 1.25 mg/kg orally) [ng/mL/min],half-life [2] [h],metabolic stability (in words) [3],half-life at 1 μM [4] [h],hepatocyte CLint at 1 μM [4] [µL/min/1e6 cells],IC50 [1] [nM],T1/2 [2] [h],p.o. AUC ([2]; dosed at 5 mg/kg orally),"Human Clint [3, 6] [uL/min/million cells]","Human t1/2 [3, 6] [h]",potency in the Thp1 monocytic ATP assay (in words) [1],"cardiac safety profile, hERG (in words) [5]"
"CC1(O)CCC(NS(=O)(=O)c2ccc(-c3ccc(F)cc3F)cc2)CC1 (centres unmarked) [ABD899, reference compound]",2133,50,–,–,–,–,–,–,200,10.8,10740 ^(4) ng/mL/min,9,2.48,–,–
"CC(=O)N1CCC(CS(=O)(=O)c2ccc(-c3ccc(Cl)cc3C#N)cc2)CC1 [NASMP-06, 4′-(((1-Acetylpiperidin-4-yl)methyl)sulfonyl)-4-chloro-[1,1′-biphenyl]-2-carbonitrile]",349,24,900,3030,3.3,exceptionally good stability,> 1,–,–,–,–,–,–,–,–
"CC(=O)N1CCC(CS(=O)(=O)c2ccc(-c3ccc(C#N)cc3Cl)cc2)CC1 [NASMP-05, 4′-(((1-Acetylpiperidin-4-yl)methyl)sulfonyl)-2-chloro-[1,1′-biphenyl]-4-carbonitrile]",–,–,1100,–,–,exceptionally good stability,–,–,–,–,–,–,–,–,–
"CC(=O)N1CCC(CS(=O)(=O)c2ccc(-c3ccc(C(F)(F)F)cc3F)cc2)CC1 [NASMP-07, 1-(4-(((2′-Fluoro-4′-(trifluoromethyl)-[1,1′-biphenyl]-4-yl)sulfonyl)methyl)piperidin-1-yl)ethan-1-one]",–,–,800,–,–,–,> 1,1.1,–,–,–,–,–,excellent potency,–
"CC(=O)N1CCC(CS(=O)(=O)c2ccc(-c3ccc(F)cc3F)cc2)CC1 [NASMP-01, 1-(4-(((2′,4′-Difluoro-[1,1′-biphenyl]-4-yl)sulfonyl)methyl)piperidin-1-yl)ethan-1-one]",816,56,1000,2299,6.6,exceptionally good stability,> 7.67,< 3,–,–,–,–,–,excellent potency,particularly positive profile

# Continued, in another order:
i.v. AUC [2] [ng/mL/min],"Bioavail, F [2] [%]","IC50 ([1]; Homo sapiens, THP-1) [nM]",p.o. AUC ([2]; 1.25 mg/kg orally) [ng/mL/min],half-life [2] [h],metabolic stability (in words) [3],half-life at 1 μM [4] [h],hepatocyte CLint at 1 μM [4] [µL/min/1e6 cells],SMILES,IC50 [1] [nM],T1/2 [2] [h],p.o. AUC ([2]; dosed at 5 mg/kg orally),"Human Clint [3, 6] [uL/min/million cells]","Human t1/2 [3, 6] [h]",potency in the Thp1 monocytic ATP assay (in words) [1],"cardiac safety profile, hERG (in words) [5]"
282,>62,600,1750,4.9,exceptionally good stability,> 1,–,"CCC(=O)N1CCC(CS(=O)(=O)c2ccc(-c3ccc(F)cc3F)cc2)CC1 [NASMP-15, 1-(4-(((2′,4′-Difluoro-[1,1′-biphenyl]-4-yl)sulfonyl)methyl)piperidin-1-yl)propan-1-one]",–,–,–,–,–,excellent potency,–
581,>69,100,3160,5.1,exceptionally good stability,–,–,"CC(=O)N1CCC(CS(=O)(=O)c2ccc(-c3ccc(F)cc3F)cc2C(F)(F)F)CC1 [NASMP-12, 1-(4-(((2′,4′-Difluoro-3-(trifluoromethyl)-[1,1′-biphenyl]-4-yl)sulfonyl)methyl)piperidin-1-yl)ethan-1-one]",–,–,–,–,–,excellent potency,–
–,–,1400,–,–,exceptionally good stability,> 6.88,< 3.4,"CC(=O)N1CCC(CS(=O)(=O)c2ccc(-c3c(F)cccc3F)cc2)CC1 [NASMP-09, 1-(4-(((2′,6′-Difluoro-[1,1′-biphenyl]-4-yl)sulfonyl)methyl)piperidin-1-yl)ethan-1-one]",–,–,–,–,–,–,particularly positive profile

# Source: patent US12162836B2, “N-acyl-{4-[(4-aryl-phenyl)sulfonylmethyl]piperidine} compounds and their therapeutic use” (Modern Biosciences Limited, priority 2019, dated 2024)
